The target of assay [1] is T1, LRRK2 WT (Homo sapiens, UniProt Q5S007).
T1 construct: comprises residue 970 to 2527 of the full length human wild-type LRRK2 kinase; purchased Invitrogen (Life Technologies Corporation)
As to the kind of experiment: LRRK2 wild-type kinase activity assay (LanthaScreen TR-FRET). To be noted: 1 nM LRRK2 WT, 1.3 mM ATP, 3.5 h at 30° C.; n≥2 tests. The class given is biochemical. Here is the method:
(§1) LRRK2 kinase activity was measured using a LanthaScreen kinase activity assay available from Invitrogen (Life Technologies Corporation). The assay is a homogeneous time resolved-fluorescence resonance energy transfer (TR-FRET) assay that measures phosphorylation of a fluorescein-labelled peptide substrate Fluorescein-ERM LRRKtide obtainable from Life Technologies Corporation as a result of LRRK2 kinase activity. The phosphorylated peptide is recognized by a terbium-labelled phospho-specific anti-LRRKtide antibody (pLRRKtide antibody), obtainable from Life Technologies Corporation and, subsequently, the phosphorylated LRRKtide can be quantified by the extent of TR-FRET between the terbium donor and fluorescein acceptor. The LRRK2 kinase was obtained from Invitrogen (Life Technologies Corporation) and comprises residue 970 to 2527 of the full length human wild-type LRRK2 kinase, or a similar sequence with the G2019S mutation. As discussed above, this mutation increases the kinase activity relative to the wild type. The kinase reactions were performed in a 20 μL volume in 384-well plates. […] The mixture was further incubated for 30 minutes at RT. […] The measurement was repeated 30 times for fluorescein and 30 times for terbium emission with a 1000 μs time window between repeats. TR-FRET measurements were performed on a Biotek Synergy plate. The TR-FRET signal was calculated as the emission-ratio at 520 nm over 495 nm. The TR-FRET ratio readout for test compounds was normalized to 0% inhibition corresponding to TR-FRET ratio measured in control wells with no inhibition of the kinase activity and 100% inhibition corresponding to TR-FRET ratio measured in control wells with inhibitor. […] C is the IC50 value and D is the Hill slope coefficient. IC50 estimates were obtained from independent experiment and the logarithmic average was calculated.
In general terms: Time-resolved FRET reads energy transfer from a long-lived donor to a nearby acceptor.

The target of assay [2] is T2, LRRK2 G2019S (Homo sapiens, UniProt Q5S007, G2019S).
T2 construct: purchased Invitrogen (Life Technologies Corporation)
T2 sequence (Q5S007 970-2527 G2019S): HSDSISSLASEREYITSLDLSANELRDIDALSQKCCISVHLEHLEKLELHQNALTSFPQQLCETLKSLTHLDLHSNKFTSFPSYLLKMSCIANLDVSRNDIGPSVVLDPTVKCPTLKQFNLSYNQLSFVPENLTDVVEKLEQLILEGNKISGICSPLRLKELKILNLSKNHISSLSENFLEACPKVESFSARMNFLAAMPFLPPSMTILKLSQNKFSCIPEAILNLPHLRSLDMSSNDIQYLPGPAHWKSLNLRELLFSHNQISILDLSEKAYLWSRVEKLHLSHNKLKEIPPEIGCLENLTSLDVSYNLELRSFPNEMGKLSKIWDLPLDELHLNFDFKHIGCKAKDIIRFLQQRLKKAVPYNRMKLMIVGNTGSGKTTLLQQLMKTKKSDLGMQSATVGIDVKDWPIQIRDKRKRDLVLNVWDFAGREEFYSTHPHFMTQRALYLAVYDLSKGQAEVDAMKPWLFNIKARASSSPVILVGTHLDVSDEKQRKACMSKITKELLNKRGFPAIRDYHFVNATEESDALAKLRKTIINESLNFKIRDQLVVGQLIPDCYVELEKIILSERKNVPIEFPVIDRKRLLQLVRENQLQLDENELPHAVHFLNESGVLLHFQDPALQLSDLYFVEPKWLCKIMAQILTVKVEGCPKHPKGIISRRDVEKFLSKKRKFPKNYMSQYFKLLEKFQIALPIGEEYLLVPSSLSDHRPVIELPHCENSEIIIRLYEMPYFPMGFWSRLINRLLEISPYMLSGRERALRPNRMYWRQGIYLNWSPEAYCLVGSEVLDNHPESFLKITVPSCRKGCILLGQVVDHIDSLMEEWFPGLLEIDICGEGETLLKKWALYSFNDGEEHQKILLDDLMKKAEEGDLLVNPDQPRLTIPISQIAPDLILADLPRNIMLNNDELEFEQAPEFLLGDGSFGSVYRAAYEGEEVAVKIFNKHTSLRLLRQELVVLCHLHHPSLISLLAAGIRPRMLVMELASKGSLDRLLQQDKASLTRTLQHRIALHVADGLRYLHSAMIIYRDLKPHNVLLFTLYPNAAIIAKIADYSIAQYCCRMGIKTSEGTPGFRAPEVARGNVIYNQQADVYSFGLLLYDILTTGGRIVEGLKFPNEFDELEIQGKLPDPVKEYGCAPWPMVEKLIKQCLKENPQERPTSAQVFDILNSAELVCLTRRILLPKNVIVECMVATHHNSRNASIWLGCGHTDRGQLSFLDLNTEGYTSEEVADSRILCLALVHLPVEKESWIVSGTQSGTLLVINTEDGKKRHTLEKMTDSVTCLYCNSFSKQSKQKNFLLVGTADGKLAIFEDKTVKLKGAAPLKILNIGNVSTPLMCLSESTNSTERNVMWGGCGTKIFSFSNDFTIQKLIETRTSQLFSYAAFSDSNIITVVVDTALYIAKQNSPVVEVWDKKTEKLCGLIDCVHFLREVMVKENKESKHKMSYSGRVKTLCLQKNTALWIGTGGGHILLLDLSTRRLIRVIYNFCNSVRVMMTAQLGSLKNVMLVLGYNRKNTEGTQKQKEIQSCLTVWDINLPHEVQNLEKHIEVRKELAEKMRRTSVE
As to the kind of experiment: LRRK2 G2019S kinase activity assay (LanthaScreen TR-FRET). The format is biochemical. To be noted: 250 pM LRRK2 G2019S, 1.3 mM ATP, 3 h at 30° C.; n≥2 tests. Here is the method: as §1

T1 sequence (Q5S007 970-2527): as the sequence (Q5S007 970-2527 G2019S) above, with S1050G counted along it

As for `Cc1c2c(nn1[C@@H]1CCOC[C@@H]1C)OCCCn1nc(Cl)c3cnc(nc31)N2` (single isomer, unassigned) [Example 22, 8-Chloro-3-methyl-2-((3R,4S) or (3S,4R) or (3S,4S) or (3R,4R)-3-methyltetrahydro-2H-pyran-4-yl)-2,4,12,13-tetrahydro-11H-5,7-(azenometheno)dipyrazolo[3,4-b:5′,1′-g][1]oxa[4,6,8]triazacycloundecine], the values for the IC50 in assay [1] and in assay [2] were 10 nM and 3.5 nM, respectively.

Consider `Cc1c2c(nn1CC13CC(CO1)C3)OCCCn1nc(Cl)c3cnc(nc31)N2` [Example 11, 2-((2-Oxabicyclo[2.1.1]hexan-1-yl)methyl)-8-chloro-3-methyl-2,4,12,13-tetrahydro-11H-5,7-(azenometheno)dipyrazolo[3,4-b:5′,1′-g][1]oxa[4,6,8]triazacycloundecine], for which the values for the IC50 in assay [1] and in assay [2] were 14 nM and 4.6 nM, respectively.

As for `CCc1c2c(nn1[C@@H]1CCOC[C@H]1F)OCCCn1nc(Cl)c3cnc(nc31)N2` (single isomer, unassigned) [Example 56, (−)-8-Chloro-3-ethyl-2-((3R,4S) or (3S,4R)-3-fluorotetrahydro-2H-pyran-4-yl)-2,4,12,13-tetrahydro-11H-5,7-(azenometheno)dipyrazolo[3,4-b:5′,1′-g][1]oxa[4,6,8]triazacycloundecine], the IC50 (as a rule, the concentration that gives 50% inhibition) is 4.9 nM in assay [1] and 2 nM in assay [2].

Take `Cc1c2c(nn1[C@H]1CCOC(C)(C)C1)OCCCn1nc(Cl)c3cnc(nc31)N2` (single isomer, unassigned) [Example 43, (−)-(R) or (S)-8-Chloro-2-(2,2-dimethyltetrahydro-2H-pyran-4-yl)-3-methyl-2,4,12,13-tetrahydro-11H-5,7-(azenometheno)dipyrazolo[3,4-b:5′,1′-g][1]oxa[4,6,8]triazacycloundecine]: the IC50 in assay [1] was 17 nM; in assay [2], 5.3 nM.

On to `Cc1c2c(nn1[C@@H]1CCOC3(CC3)C1)OCCCn1nc(Cl)c3cnc(nc31)N2` (single isomer, unassigned) [Example 54, (−)-(R) or (S)-8-Chloro-3-methyl-2-(4-oxaspiro[2.5]octan-7-yl)-2,4,12,13-tetrahydro-11H-5,7-(azenometheno)dipyrazolo[3,4-b:5′,1′-g][1]oxa[4,6,8]triazacycloundecine], for which the IC50 stood at 2.6 nM in assay [1] and 0.88 nM in assay [2].

With `FC1(c2c3c(nn2C2CCOCC2)OCCCn2nc(Cl)c4cnc(nc42)N3)CC1` [Example 16, 8-Chloro-3-(1-fluorocyclopropyl)-2-(tetrahydro-2H-pyran-4-yl)-2,4,12,13-tetrahydro-11H-5,7-(azenometheno)dipyrazolo[3,4-b:5′,1′-g][1]oxa[4,6,8]triazacycloundecine], the half-maximal inhibitory concentration (IC50) in assay [1] worked out at 60 nM; in assay [2] it was 16 nM.

Regarding `[2H]C([2H])([2H])c1c2c(nn1[C@H]1CCOC3(CC3)C1)OCCCn1nc(Cl)c3cnc(nc31)N2` (single isomer, unassigned) [Example 64, (−)-(R) or (S)-8-Chloro-3-(methyl-d3)-2-(4-oxaspiro[2.5]octan-7-yl)-2,4,12,13-tetrahydro-11H-5,7-(azenometheno)dipyrazolo[3,4-b:5′,1′-g][1]oxa[4,6,8]triazacycloundecine], the IC50 was 11 nM in assay [1] and 5 nM in assay [2].

As to `[2H]C1([2H])CCOc2nn(C3CCOCC3)c(C)c2Nc2ncc3c(Cl)nn1c3n2` [Example 45, 8-Chloro-3-methyl-2-(tetrahydro-2H-pyran-4-yl)-2,4,12,13-tetrahydro-11H-5,7-(azenometheno)dipyrazolo[3,4-b:5′,1′-g][1]oxa[4,6,8]triazacycloundecine-11,11-d2], the IC50 in assay [1] amounted to 13 nM; in assay [2], 3.6 nM.

As to `Cc1c2c(nn1CC1CCOCC1)OCCCn1nc(Cl)c3cnc(nc31)N2` [Example 49, 8-Chloro-3-methyl-2-((tetrahydro-2H-pyran-4-yl)methyl)-2,4,12,13-tetrahydro-11H-5,7-(azenometheno)dipyrazolo[3,4-b:5′,1′-g][1]oxa[4,6,8]triazacycloundecine], the IC50 is 9.4 nM in assay [1] and 4.7 nM in assay [2].

On to `Cc1c2c(nn1[C@@H]1CCOC[C@@H]1C)OCCCn1nc(Cl)c3cnc(nc31)N2` (single isomer, unassigned) [Example 21, 8-Chloro-3-methyl-2-((3R,4S) or (3S,4R) or (3S,4S) or (3R,4R)-3-methyltetrahydro-2H-pyran-4-yl)-2,4,12,13-tetrahydro-11H-5,7-(azenometheno)dipyrazolo[3,4-b:5′,1′-g][1]oxa[4,6,8]triazacycloundecine], for which the IC50 in assay [1] came to 10 nM; in assay [2], 3.7 nM.

With `[2H]C1([2H])Oc2nn(C3CCOCC3)c(C)c2Nc2ncc3c(Cl)nn(c3n2)C([2H])([2H])C1([2H])[2H]` [Example 20, 8-Chloro-3-methyl-2-(tetrahydro-2H-pyran-4-yl)-2,4,12,13-tetrahydro-11H-5,7-(azenometheno)dipyrazolo[3,4-b:5′,1′-g][1]oxa[4,6,8]triazacycloundecine-11,11,12,12,13,13-d6], the half-inhibitory concentration (IC50) in assay [1] worked out at 14 nM; in assay [2], 5.1 nM.

Take `Cc1c2c(nn1C1CC3(COC3)C1)OCCCn1nc(Cl)c3cnc(nc31)N2` [Example 34, 8-Chloro-3-methyl-2-(2-oxaspiro[3.3]heptan-6-yl)-2,4,12,13-tetrahydro-11H-5,7-(azenometheno)dipyrazolo[3,4-b:5′,1′-g][1]oxa[4,6,8]triazacycloundecine]: the figures for the IC50 in assay [1] and in assay [2] were 18 nM and 5.7 nM, respectively.

Regarding `Cc1c2c(nn1[C@H]1CCCCOC1)OCCCn1nc(Cl)c3cnc(nc31)N2` (single isomer, unassigned) [Example 28, (+)-(R) or (S)-8-Chloro-3-methyl-2-(oxepan-3-yl)-2,4,12,13-tetrahydro-11H-5,7-(azenometheno)dipyrazolo[3,4-b:5′,1′-g][1]oxa[4,6,8]triazacycloundecine], the values for the IC50 in assay [1] and in assay [2] were 19 nM and 5.3 nM, respectively.

Regarding `Cc1nn2c3nc(ncc13)Nc1c(nn(C3CCOCC3)c1C)OCCC2` [Example 8, 3,8-Dimethyl-2-(tetrahydro-2H-pyran-4-yl)-2,4,12,13-tetrahydro-11H-5,7-(azenometheno)dipyrazolo[3,4-b:5′,1′-g][1]oxa[4,6,8]triazacycloundecine], the IC50 in assay [1] came out at 93 nM; in assay [2] it was 21 nM.

In the case of `Cc1c2c(nn1[C@@H]1CCOC[C@@H]1C)OCCCn1nc(Cl)c3cnc(nc31)N2` (single isomer, unassigned) [Example 23, 8-Chloro-3-methyl-2-((3R,4S) or (3S,4R) or (3S,4S) or (3R,4R)-3-methyltetrahydro-2H-pyran-4-yl)-2,4,12,13-tetrahydro-11H-5,7-(azenometheno)dipyrazolo[3,4-b:5′,1′-g][1]oxa[4,6,8]triazacycloundecine], the IC50 in assay [1] worked out at 44 nM; in assay [2] it was 20 nM.

With `Cc1c2c(nn1C1CCC(F)(F)CC1)OCCCn1nc(Cl)c3cnc(nc31)N2` [Example 26, 8-Chloro-2-(4,4-difluorocyclohexyl)-3-methyl-2,4,12,13-tetrahydro-11H-5,7-(azenometheno)dipyrazolo[3,4-b:5′,1′-g][1]oxa[4,6,8]triazacycloundecine], the IC50 in assay [1] came to 21 nM; in assay [2], 5.9 nM.

In the case of `Cc1c2c(nn1C)OCCCn1nc(Cl)c3cnc(nc31)N2` [Example 1, 8-Chloro-2,3-dimethyl-2,4,12,13-tetrahydro-11H-5,7-(azenometheno)dipyrazolo[3,4-b:5′,1′-g][1]oxa[4,6,8]triazacycloundecine], the IC50 worked out at 55 nM in assay [1] and 18 nM in assay [2].

Turning to `[2H]C([2H])([2H])c1c2c(nn1[C@H]1CCOC3(CC3)C1)OCCCn1nc(Cl)c3cnc(nc31)N2` (single isomer, unassigned) [Example 65, (+)-(R) or (S)-8-Chloro-3-(methyl-d3)-2-(4-oxaspiro[2.5]octan-7-yl)-2,4,12,13-tetrahydro-11H-5,7-(azenometheno)dipyrazolo[3,4-b:5′,1′-g][1]oxa[4,6,8]triazacycloundecine], the IC50 in assay [1] came to 4.8 nM; in assay [2], 1.7 nM.

In the case of `Cc1c2c(nn1C1CCOCC1)OCCCn1nc(C#N)c3cnc(nc31)N2` [Example 9, 3-Methyl-2-(tetrahydro-2H-pyran-4-yl)-2,4,12,13-tetrahydro-11H-5,7-(azenometheno)dipyrazolo[3,4-b:5′,1′-g][1]oxa[4,6,8]triazacycloundecine-8-carbonitrile], the IC50 was determined as 110 nM in assay [1] and 57 nM in assay [2].

The record behind these values is patent US11780851B2, “LRRK2 inhibitors” (H. Lundbeck A/S, priority 2021, dated 2023).
